Conditions in all cases: biochemical activity; 10 μM ATP
Experiment [1] addresses KDR (Homo sapiens, UniProt P35968). As to the kind of experiment: Human KDR kinase assay (33P-phosphoryl transfer radiometric, KinaseProfiler). Details: Human KDR (residues K790-V1356, 55 nM); purchased Eurofins Pharma Discovery Services UK Limited (KinaseProfiler service). As to the method:
(§1) Kinase activity and compound inhibition were investigated using the ^33P-Phosphoryl transfer radiometric kinase assay, performed using the KinaseProfiler™ service of Eurofins Pharma Discovery Services UK Limited. Dose-response experiments were performed using nine compound concentrations in a 96-well microtiter plate. For each assay, all compounds were prepared to a 50× final assay concentration (50 μM) in 100% DMSO, then diluted in a half-log series, with the final top concentration at 1 μM. This working stock of the compound was added to the assay well as the first component in the reaction, followed by the remaining components as detailed in the following assay protocols below. The positive control wells (100% kinase activity) contain all components of the reaction including 2% DMSO (control for solvent effects), except the compound of interest. Blank wells contain all components of the reaction, with the reference inhibitor, staurosporine. This reference compound was used to abolish kinase activity and generated the 0% kinase activity base-line. IC50 values were calculated by nonlinear regression analysis using the sigmoidal dose-response (variable slope) curve fit on XLFit version 5.3 (ID Business Solutions).
(§2) Human KDR (residues K790-V1356, 55 nM) was incubated with 8 mM MOPS pH 7.0, 0.2 mM EDTA, 0.33 mg/mL myelin basic protein, 10 mM magnesium acetate, and 10 μM [γ-^33P-ATP]. The reaction was initiated by the addition of the Mg/ATP mix. After incubation for 40 minutes at room temperature, the reaction was stopped by the addition of phosphoric acid to a concentration of 0.5%. A reaction aliquot of 10 μL was then spotted onto a P30 filtermat and washed four times for 4 minutes in 0.425% phosphoric acid and once in methanol prior to drying and scintillation counting. Incorporated ^33P was measured using the Wallac Microbeta scintillation counter (Perkin Elmer).

The target in experiment [2] is T1, Human Axl (Homo sapiens, UniProt P30530, Q764R).
T1 construct: Human Axl (residues H473-A894 with Q764R, 161 nM); purchased Eurofins Pharma Discovery Services UK Limited (KinaseProfiler service)
T1 sequence (P30530 473-894 Q764R): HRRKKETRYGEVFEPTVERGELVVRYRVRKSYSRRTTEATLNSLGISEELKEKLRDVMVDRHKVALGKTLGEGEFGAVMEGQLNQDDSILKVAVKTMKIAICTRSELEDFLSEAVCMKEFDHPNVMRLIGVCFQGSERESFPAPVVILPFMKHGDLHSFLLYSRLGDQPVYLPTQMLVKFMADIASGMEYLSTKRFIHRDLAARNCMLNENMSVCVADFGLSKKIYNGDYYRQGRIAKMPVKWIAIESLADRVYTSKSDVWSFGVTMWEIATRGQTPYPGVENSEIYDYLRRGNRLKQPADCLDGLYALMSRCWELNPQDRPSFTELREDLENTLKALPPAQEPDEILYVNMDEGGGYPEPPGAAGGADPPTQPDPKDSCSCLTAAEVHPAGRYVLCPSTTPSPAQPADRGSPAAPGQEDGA
As to the kind of experiment: Human AXL kinase assay (33P-phosphoryl transfer radiometric, KinaseProfiler). As to the method: as §1
as §2, with “Axl” for “KDR”, “H473-A894 with Q764R, 161” for “K790-V1356, 55”, “250 μM KKSRGDYMTMQIG,” for “0.33 mg/mL myelin basic protein,”, “[y-^33P-ATP].” for “[γ-^33P-ATP].”

Experiment [3] concerns the target T2, Human Mer (Homo sapiens, UniProt Q12866).
T2 construct: Human Mer (residues R557-E882 with H628Q and R794A, 0.7 nM); purchased Eurofins Pharma Discovery Services UK Limited (KinaseProfiler service)
T2 sequence (Q12866 557-882 limits assumed): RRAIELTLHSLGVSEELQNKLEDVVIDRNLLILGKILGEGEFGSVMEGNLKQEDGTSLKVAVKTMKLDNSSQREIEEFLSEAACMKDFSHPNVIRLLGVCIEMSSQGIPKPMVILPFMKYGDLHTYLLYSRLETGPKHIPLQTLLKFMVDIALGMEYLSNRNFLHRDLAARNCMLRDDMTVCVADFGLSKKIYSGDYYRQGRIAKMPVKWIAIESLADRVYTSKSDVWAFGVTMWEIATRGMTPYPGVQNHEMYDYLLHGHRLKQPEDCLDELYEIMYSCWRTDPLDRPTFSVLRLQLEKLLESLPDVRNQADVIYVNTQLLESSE
As to the kind of experiment: Human Mer kinase assay (33P-phosphoryl transfer radiometric, KinaseProfiler). The protocol:
as §1
as §2, with “Mer” for “KDR”, “R557-E882 with H628Q and R794A, 0.7” for “K790-V1356, 55”, “30 mM NaCl, 250 μM GGMEDIYFEFMGGKKK,” for “0.33 mg/mL myelin basic protein,”, “acetate” for “acetate,”, “[y-^33P-ATP].” for “[γ-^33P-ATP].”

Bounds are passed on as bounds.

Sequence of KDR (P35968 790-1356): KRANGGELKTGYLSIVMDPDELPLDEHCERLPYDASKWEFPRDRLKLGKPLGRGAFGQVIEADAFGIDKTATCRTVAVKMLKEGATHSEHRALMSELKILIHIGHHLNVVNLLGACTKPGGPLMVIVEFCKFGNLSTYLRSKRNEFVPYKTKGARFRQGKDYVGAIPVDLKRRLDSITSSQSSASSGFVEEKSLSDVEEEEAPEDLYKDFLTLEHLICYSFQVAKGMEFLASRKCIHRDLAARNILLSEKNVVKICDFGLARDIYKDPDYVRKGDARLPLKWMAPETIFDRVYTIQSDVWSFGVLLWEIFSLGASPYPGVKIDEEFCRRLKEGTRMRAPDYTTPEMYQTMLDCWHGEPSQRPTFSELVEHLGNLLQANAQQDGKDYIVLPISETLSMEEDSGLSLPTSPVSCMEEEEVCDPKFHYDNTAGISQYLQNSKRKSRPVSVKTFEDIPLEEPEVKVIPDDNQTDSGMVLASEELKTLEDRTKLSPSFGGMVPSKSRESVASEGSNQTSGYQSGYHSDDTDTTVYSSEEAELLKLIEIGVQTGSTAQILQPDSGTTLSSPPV

Turning to `O=C(Nc1ccc(F)cc1)C1(C(=O)Nc2ccc(Oc3ccnc4cc(-c5cn[nH]c5)ccc34)cc2)CC1` [Compound 67, 1-N′-(4-Fluorophenyl)-1-N-[4-[7-(1H-pyrazol-4-yl)quinolin-4-yl]oxyphenyl]cyclopropane-1,1-dicarboxamide], the IC50 in experiment [1] was 10 to 100 nM; in experiment [2], at most 10 nM; in experiment [3] it was at most 10 nM.

Turning to `O=C(Nc1ccc(F)cc1)C1(C(=O)Nc2ccc(Oc3ccnc4cc(-c5cnn(C(F)(F)F)c5)ccc34)cc2)CC1` [Compound 12, 1-N′-(4-Fluorophenyl)-1-N-[4-[7-[1-(trifluoromethyl)pyrazol-4-yl]quinolin-4-yl]oxyphenyl]cyclopropane-1,1-dicarboxamide], the IC50 was 10 to 100 nM in experiment [1], 10 to 100 nM in experiment [2] and at most 10 nM in experiment [3].

As for `CS(=O)(=O)n1cc(-c2ccc3c(Oc4ccc(NC(=O)C5(C(=O)Nc6ccc(F)cc6)CC5)cc4)ccnc3c2)cn1` [Compound 79, 1-N′-(4-Fluorophenyl)-1-N-[4-[7-(1-methylsulfonylpyrazol-4-yl)quinolin-4-yl]oxyphenyl]cyclopropane-1,1-dicarboxamide], the IC50 is 10 to 100 nM in experiment [1], at most 10 nM in experiment [2] and at most 10 nM in experiment [3].

Turning to `Cn1nccc1-c1ccc2c(Oc3ccc(NC(=O)C4(C(=O)Nc5ccc(F)cc5)CC4)cc3)ccnc2c1` [Compound 54, 1-N′-(4-Fluorophenyl)-1-N-[4-[7-(2-methylpyrazol-3-yl)quinolin-4-yl]oxyphenyl]cyclopropane-1,1-dicarboxamide], the results for the half-inhibitory concentration (IC50) in experiment [1], in experiment [2] and in experiment [3] were 10 to 100 nM, 10 to 100 nM and at most 10 nM, respectively.

As to `O=C(Nc1ccc(F)cc1)C1(C(=O)Nc2ccc(Oc3ccnc4cc(C5CCNC5)ccc34)cc2)CC1` (stereo not drawn) [Compound 83, 1-N′-(4-Fluorophenyl)-1-N-[4-(7-pyrrolidin-3-ylquinolin-4-yl)oxyphenyl]cyclopropane-1,1-dicarboxamide], the IC50 in experiment [1] was 10 to 100 nM; in experiment [2], 10 to 100 nM; in experiment [3], at most 10 nM.

Take `CC(C)(C)n1cc(-c2ccc3c(Oc4ccc(NC(=O)C5(C(=O)Nc6ccc(F)cc6)CC5)cc4)ccnc3c2)cn1` [Compound 23, 1-N-[4-[7-(1-tert-Butylpyrazol-4-yl)quinolin-4-yl]oxyphenyl]-1-N′-(4-fluorophenyl)cyclopropane-1,1-dicarboxamide]: the IC50 in experiment [1] is 10 to 100 nM; in experiment [2], 10 to 100 nM; in experiment [3], at most 10 nM.

For the molecule `O=C(Nc1ccc(F)cc1)C1(C(=O)Nc2ccc(Oc3ccnc4cc(-c5nnco5)ccc34)cc2)CC1` [Compound 73, 1-N′-(4-Fluorophenyl)-1-N-[4-[7-(1,3,4-oxadiazol-2-yl)quinolin-4-yl]oxyphenyl]cyclopropane-1,1-dicarboxamide], the IC50 in experiment [1] is 10 to 100 nM; in experiment [2], 10 to 100 nM; in experiment [3], at most 10 nM.

Regarding `O=C(Nc1ccc(F)cc1)C1(C(=O)Nc2ccc(Oc3ccnc4cc(-c5ncc[nH]5)ccc34)cc2)CC1` [Compound 74, 1-N′-(4-Fluorophenyl)-1-N-[4-[7-(1H-imidazol-2-yl)quinolin-4-yl]oxyphenyl]cyclopropane-1,1-dicarboxamide], the IC50 was 10 to 100 nM in experiment [1], at most 10 nM in experiment [2] and at most 10 nM in experiment [3].

`Cn1ccc(-c2ccc3c(Oc4ccc(NC(=O)C5(C(=O)Nc6ccc(F)cc6)CC5)cc4)ccnc3c2)n1` [Compound 17, 1-N′-(4-Fluorophenyl)-1-N-[4-[7-(1-methylpyrazol-3-yl)quinolin-4-yl]oxyphenyl]cyclopropane-1,1-dicarboxamide]: the IC50 is 10 to 100 nM in experiment [1], 10 to 100 nM in experiment [2] and at most 10 nM in experiment [3].

On to `O=C(Nc1ccc(F)cc1)C1(C(=O)Nc2ccc(Oc3ccnc4cc(-c5cnn[nH]5)ccc34)cc2)CC1` [Compound 65, 1-N′-(4-Fluorophenyl)-1-N-[4-[7-(1H-triazol-5-yl)quinolin-4-yl]oxyphenyl]cyclopropane-1,1-dicarboxamide], for which the concentration for half-maximal inhibition (IC50) in experiment [1], in experiment [2] and in experiment [3] was 100 to 1000 nM throughout.

Turning to `CN(C(=O)C1(C(=O)Nc2ccc(Oc3ccnc4cc(-c5cnn(C)c5)ccc34)cc2)CC1)c1ccc(F)cc1` [Compound 82A, 1-N′-(4-Fluorophenyl)-1-N′-methyl-1-N-[4-[7-(1-methylpyrazol-4-yl)quinolin-4-yl]oxyphenyl]cyclopropane-1,1-dicarboxamide], the IC50 in experiment [1], in experiment [2] and in experiment [3] was 100 to 1000 nM each time.

On to `Cc1noc(C)c1-c1ccc2c(Oc3ccc(NC(=O)C4(C(=O)Nc5ccc(F)cc5)CC4)cc3)ccnc2c1` [Compound 53, 1-N-[4-[7-(3,5-Dimethyl-1,2-oxazol-4-yl)quinolin-4-yl]oxyphenyl]-1-N′-(4-fluorophenyl)cyclopropane-1,1-dicarboxamide], for which the results for the IC50 in experiment [1], in experiment [2] and in experiment [3] were 10 to 100 nM, 100 to 1000 nM and 10 to 100 nM, respectively.

For `O=C(Nc1ccc(F)cc1)C1(C(=O)Nc2ccc(Oc3ccnc4cc(-c5cnn(CC(F)(F)F)c5)ccc34)cc2)CC1` [Compound 16, 1-N′-(4-Fluorophenyl)-1-N-[4-[7-[1-(2,2,2-trifluoroethyl)pyrazol-4-yl]quinolin-4-yl]oxyphenyl]cyclopropane-1,1-dicarboxamide], the half-maximal inhibitory concentration (IC50) in experiment [1] is 10 to 100 nM; in experiment [2] it was 10 to 100 nM; in experiment [3] it was at most 10 nM.

Take `Cc1cc2c(Oc3ccc(NC(=O)C4(C(=O)Nc5ccc(F)cc5)CC4)cc3)ccnc2cc1-c1cnn(C)c1` [Compound 78, 1-N′-(4-Fluorophenyl)-1-N-[4-[6-methyl-7-(1-methylpyrazol-4-yl)quinolin-4-yl]oxyphenyl]cyclopropane-1,1-dicarboxamide]: the IC50 is 10 to 100 nM in experiment [1], at most 10 nM in experiment [2] and at most 10 nM in experiment [3].

`C[Si](C)(C)C#Cc1ccc2c(Oc3ccc(NC(=O)C4(C(=O)Nc5ccc(F)cc5)CC4)cc3)ccnc2c1` [Compound 63, 1-N′-(4-Fluorophenyl)-1-N-[4-[7-(2-trimethylsilylethynyl)quinolin-4-yl]oxyphenyl]cyclopropane-1,1-dicarboxamide]: the IC50 in experiment [1], in experiment [2] and in experiment [3] was 100 to 1000 nM in each case.

What is called IC50 is the concentration needed to halve the response being measured. A higher IC50 goes with weaker potency in that assay.

The record behind these values is patent US12503438B2, “Compounds for the treatment of kinase-dependent disorders” (Exelixis, Inc., priority 2019, dated 2025).
